Measured values reported in patent publication US20090029949A1, “GPCR Ligands Identified by Computational Modeling” (priority 2006, published 2009).

Assays:
[1] = target: T1, S1P1 mutant F5.48Y (Homo sapiens, UniProt P21453, F210Y); assay: [35S]GTPγS binding, S1P1 F5.48Y; type: biochemical; conditions: S1P-induced, S1P1 F5.48Y in RH7777 cells
T1 construct: expressed in transfected cells; host or cells: RH7777
Experimental: RH7777 and HEK-293 cells (ATCC, Manassas, Va.) were maintained in Dulbecco's modified minimal essential medium (DMEM) containing 10% fetal bovine serum (Hyclone, Logan, Utah). Cells (2×10^6) were transfected with 2 μg of plasmid DNA with Effectene (Qiagen, Valencia, Calif.) according to the manufacturer's instructions, for 24 h. Before ligand binding and receptor activation assays, the cells were washed twice with serum-free DMEM and serum-starved for at least 6 h.
S1P1 Receptor Activation Assays Receptor functional assays were performed in transiently transfected RH7777 cells by measuring S1P-activated [^35S]GTPγS binding as previously described (28).

[2] = target: WT S1P1 (Homo sapiens, UniProt P21453); assay: [32P]S1P competition binding, HEK-293 cells, WT-S1P1; conditions: WT-S1P1, HEK-293 cells
WT S1P1, sequence (P21453 whole entry): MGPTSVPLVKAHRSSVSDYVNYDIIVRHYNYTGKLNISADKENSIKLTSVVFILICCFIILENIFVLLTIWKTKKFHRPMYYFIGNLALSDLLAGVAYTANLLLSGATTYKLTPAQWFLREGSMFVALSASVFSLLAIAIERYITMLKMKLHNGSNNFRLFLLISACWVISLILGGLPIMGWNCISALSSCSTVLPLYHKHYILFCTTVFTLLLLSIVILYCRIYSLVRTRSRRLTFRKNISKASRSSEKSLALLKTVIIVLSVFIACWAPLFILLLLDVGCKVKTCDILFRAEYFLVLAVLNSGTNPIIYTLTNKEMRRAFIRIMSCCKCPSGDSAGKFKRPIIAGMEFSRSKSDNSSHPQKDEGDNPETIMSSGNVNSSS
Experimental: For the competition assays, HEK-293 cells were used. Briefly, 4×10^5 cells were plated in 24-well dishes and allowed to adhere overnight. The cells were then transfected with 0.4 μg of the cDNA using Lipofectamine 2000 (Invitrogen) and the transfection proceeded for 48 h. After washing the cells twice with ice-cold binding buffer (20 mM Tris-HCl, pH 7.4 and 150 mM NaCl), 0.1 nM [^32P]S1P and competing concentrations of cold S1P (1 nM-10 μM), resuspended in binding buffer+4% BSA, were applied to the cells and incubated on ice for 30 min. After washing the cells twice with ice-cold binding buffer+0.4% BSA, the cells were lysed with 0.5% SDS and equilibrated in scintillation fluid. The samples were measured in triplicate.

T1 sequence (P21453 whole entry F210Y): as the sequence (P21453 whole entry) above, with F210Y counted along it

- % WT Emax + s.d. [1]: ∞
- EC50 + s.d. [1]: ∞
- Bmax [2]: 2450 fmol
- Kd ([2]; competition with cold S1P, read-out: KD + s.d.): 38.7 nM
Structure (SMILES): CCCCCCCCCCCCC/C=C/[C@@H](O)[C@@H](N)COP(=O)(O)O [S1P, Sphingosine 1-phosphate]
